Assays:
Mus musculus [1] = experiment: Dose normalized AUC in C57BL/6 mouse at 10 mg/kg, po; type: ADME, organism-based; design: dose 10 mg/kg, route oral; conditions: in vivo
Mus musculus [2] = experiment: Dose normalized AUC (0 to t) in C57BL/6 mouse at 10 mg/kg, po; type: ADME, organism-based; design: dose 10 mg/kg, route oral; conditions: in vivo

Row | AUC/dose (Mus musculus [1]) [ng·h/mL/mg/kg] | AUCt/dose (Mus musculus [2]) [ng·h/mL/mg/kg] | SMILES
1 | 634 |  | Cc1cccnc1CN1CCC2(CC1)CCN(c1ccc(-c3ccc(C(=O)O)cc3)cc1)C2=O
2 |  | 22.6 | Cc1cc(CCC(=O)O)cnc1CN1CCC2(CC1)CCN(c1ccc(-c3ccccc3)cc1)C2=O
